According to the supplement of paper PMC10307832:

What was measured:
Experiment in all cases: relative viability (nuclei count vs DMSO), 5 days (fraction); higher = more cells survive
[1] = test system: COR-L 105
Procedure, shortened: (§1)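 After 5 days of treatment, lung cancer cells in 1536-well plates were fixed and stained in a single step (final 0.05% Triton X-100, 1% formaldehyde, 1 ug/ml Hoechst) and their nuclei counted on 4× images. Treatment had been applied by pin tool the day after seeding as one drug alone or as a fixed anchor-drug dose with five library-drug doses (not always all listed) in √10 steps. Relative viability is the nuclei count of treated wells divided by that of vehicle wells, and values are medians of duplicate plates.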

[2] = test system: COR-L23
Procedure, shortened: as §1

[3] = test system: HARA
Procedure, shortened: as §1

[4] = test system: HCC-15
Procedure, shortened: as §1

[5] = test system: HOP-62
Procedure, shortened: as §1

[6] = test system: NCI-H1355
Procedure, shortened: as §1

[7] = test system: NCI-H1395
Procedure, shortened: as §1

[8] = test system: NCI-H1734
Procedure, shortened: as §1

[9] = test system: NCI-H1755
Procedure, shortened: as §1

[10] = test system: NCI-H1792
Procedure, shortened: as §1

[11] = test system: NCI-H1793
Procedure, shortened: as §1

Compound: Nc1ccn([C@@H]2O[C@H](CO)[C@@H](O)[C@@H]2O)c(=O)n1 [Cytarabine] + CCNC(=O)c1noc(-c2cc(C(C)C)c(O)cc2O)c1-c1ccc(CN2CCOCC2)cc1 [Luminespib] (partner 0.01 µM)
- relative viability ([1]; first compound 0.005 µM): 0.783
- relative viability ([1]; first compound 0.01581 µM): 0.667
- relative viability ([1]; first compound 0.05 µM): 0.739
- relative viability ([1]; first compound 0.1581 µM): 0.405
- relative viability ([1]; first compound 0.5 µM): 0.278
- relative viability ([2]; first compound 0.005 µM): 0.481
- relative viability ([2]; first compound 0.01581 µM): 0.789
- relative viability ([2]; first compound 0.05 µM): 0.628
- relative viability ([2]; first compound 0.1581 µM): 0.257
- relative viability ([2]; first compound 0.5 µM): 0.163
- relative viability ([3]; first compound 0.005 µM): 0.898
- relative viability ([3]; first compound 0.01581 µM): 0.303
- relative viability ([3]; first compound 0.05 µM): 0.27
- relative viability ([3]; first compound 0.1581 µM): 0.1
- relative viability ([3]; first compound 0.5 µM): 0.0906
- relative viability ([4]; first compound 0.005 µM): 0.328
- relative viability ([4]; first compound 0.01581 µM): 0.416
- relative viability ([4]; first compound 0.05 µM): 0.354
- relative viability ([4]; first compound 0.1581 µM): 0.428
- relative viability ([4]; first compound 0.5 µM): 0.267
- relative viability ([5]; first compound 0.005 µM): 0.679
- relative viability ([5]; first compound 0.01581 µM): 0.49
- relative viability ([5]; first compound 0.05 µM): 0.285
- relative viability ([5]; first compound 0.1581 µM): 0.135
- relative viability ([5]; first compound 0.5 µM): 0.135
- relative viability ([6]; first compound 0.005 µM): 0.612
- relative viability ([6]; first compound 0.01581 µM): 0.734
- relative viability ([6]; first compound 0.05 µM): 0.623
- relative viability ([6]; first compound 0.1581 µM): 0.344
- relative viability ([6]; first compound 0.5 µM): 0.402
- relative viability ([7]; first compound 0.005 µM): 0.544
- relative viability ([7]; first compound 0.01581 µM): 0.61
- relative viability ([7]; first compound 0.05 µM): 0.437
- relative viability ([7]; first compound 0.1581 µM): 0.366
- relative viability ([7]; first compound 0.5 µM): 0.346
- relative viability ([8]; first compound 0.005 µM): 0.251
- relative viability ([8]; first compound 0.01581 µM): 0.162
- relative viability ([8]; first compound 0.05 µM): 0.138
- relative viability ([8]; first compound 0.1581 µM): 0.139
- relative viability ([8]; first compound 0.5 µM): 0.134
- relative viability ([9]; first compound 0.005 µM): 0.879
- relative viability ([9]; first compound 0.01581 µM): 0.222
- relative viability ([9]; first compound 0.05 µM): 0.328
- relative viability ([9]; first compound 0.1581 µM): 0.274
- relative viability ([9]; first compound 0.5 µM): 0.378
- relative viability ([10]; first compound 0.01581 µM): 0.431
- relative viability ([10]; first compound 0.05 µM): 0.366
- relative viability ([10]; first compound 0.1581 µM): 0.313
- relative viability ([10]; first compound 0.5 µM): 0.271
- relative viability ([11]; first compound 0.005 µM): 0.201
- relative viability ([11]; first compound 0.01581 µM): 0.186
- relative viability ([11]; first compound 0.05 µM): 0.232
- relative viability ([11]; first compound 0.1581 µM): 0.184
- relative viability ([11]; first compound 0.5 µM): 0.155
